# Like-named read-outs stand apart in the source and are kept apart here.
# Biological target: T1, HCV NS3-4A protease (Hepatitis C virus genotype 1a, UniProt P27958)
# T1 construct: HCV NS3-4A protease
# Assay: HCV NS3-4A protease assay in vitro (FRET-S substrate)
# Type: biochemical
# Method: HCV NS3-4A Protease Assay In Vitro.
# The assay was conducted in Buffer A containing 30 mM NaCl, 5 mM CaCl2, 10 mM DTT, 50 mM Tris (pH7.8), using the Ac-Asp-Glu-Asp(EDANS)-Glu-Glu-Abu-ψ-[COO]-Ala-Ser-Lys (DABCYL)-NH2 (FRET-S) fluorescent peptide (AnaSpec, USA) as substrate. Briefly, 140 μL buffer A, 20 μL compounds dissolved in buffer A with different concentration and 20 μL HCV NS3-4A protease diluted in buffer A were added into 96-well plate respectively and mixed well. The reaction was initiate with adding 20 μL of FRET-S. Reactions were continuously monitored at 37° C. using a BMG Polarstar Galaxy (MTX Lab Systems, Inc. USA), with excitation and emission filters of 355 nm and 520 nm, respectively. The 50% inhibitory concentration (IC50) was calculated with Reed & Muench methods.
# [1] = HCV NS3-4A protease inhibition, 37° C., class symbols, read-out: NS3-NS4A IC50
# T1 sequence (P27958 1027-1657): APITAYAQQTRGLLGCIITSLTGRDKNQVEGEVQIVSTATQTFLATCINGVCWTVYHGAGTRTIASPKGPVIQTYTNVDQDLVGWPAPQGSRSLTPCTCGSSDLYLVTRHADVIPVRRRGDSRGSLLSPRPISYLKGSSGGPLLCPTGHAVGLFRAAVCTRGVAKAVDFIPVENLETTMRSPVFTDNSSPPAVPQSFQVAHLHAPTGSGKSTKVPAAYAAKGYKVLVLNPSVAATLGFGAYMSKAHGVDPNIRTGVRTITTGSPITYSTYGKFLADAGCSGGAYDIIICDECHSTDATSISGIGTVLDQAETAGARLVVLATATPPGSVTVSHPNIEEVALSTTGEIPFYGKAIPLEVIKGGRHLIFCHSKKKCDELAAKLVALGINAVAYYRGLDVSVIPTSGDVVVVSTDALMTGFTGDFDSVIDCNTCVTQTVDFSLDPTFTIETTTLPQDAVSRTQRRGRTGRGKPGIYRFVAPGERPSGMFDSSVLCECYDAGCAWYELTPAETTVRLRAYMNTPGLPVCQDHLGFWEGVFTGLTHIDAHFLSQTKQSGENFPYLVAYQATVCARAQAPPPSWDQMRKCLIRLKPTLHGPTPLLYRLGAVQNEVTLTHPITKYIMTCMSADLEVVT
# T1 sequence (P27958 1658-1711): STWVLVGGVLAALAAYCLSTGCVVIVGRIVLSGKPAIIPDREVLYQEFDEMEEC
SMILES,IC50 [1] [nM],IC50 [nM]
CC(C)(C)OC(=O)N([C@H]1CCCCC/C=C\[C@@H]2C[C@@]2(C(=O)NS(=O)(=O)C2CC2)NC(=O)[C@@H]2C[C@@H](OC(=O)N3Cc4cccc(F)c4C3)CN2C1=O)S(C)(=O)=O [Compound 12u],< 30,–
CC[C@H]1C[C@@]1(NC(=O)C1C[C@@H](OC(=O)N2Cc3cc4c(cc3C2)OCO4)CN1C(=O)[C@@H](NC(=O)[C@@H](NS(=O)(=O)c1ccc2ccccc2c1)C1CCCCC1)C(C)(C)C)C(=O)NS(=O)(=O)C1CC1 (some centres unmarked) [Compound 30s],< 30,–
CCOC(=O)N[C@H](C(=O)N[C@H](C(=O)N1C[C@H](OC(=O)N2Cc3cc4c(cc3C2)OCO4)CC1C(=O)N[C@@]1(C(=O)NS(=O)(=O)C2CC2)C[C@@H]1CC)C(C)(C)C)C1CCCCC1 (some centres unmarked) [Compound 30v],–,< 30
CC(C)S(=O)(=O)NC(=O)[C@@]12C[C@H]1/C=C\CCCCC[C@H](NC(=O)OC(C)(C)C)C(=O)N1C[C@H](OC(=O)N3Cc4cc5c(cc4C3)OCCO5)C[C@H]1C(=O)N2 [Compound 12g],< 30,–
CC[C@H]1C[C@@]1(NC(=O)C1C[C@@H](OC(=O)N2Cc3cc4c(cc3C2)OCO4)CN1C(=O)[C@@H](NC(=O)[C@@H](NC(=O)OCc1ccccc1)C1CCCCC1)C(C)(C)C)C(=O)NS(=O)(=O)C1CC1 (some centres unmarked) [Compound 30y],–,< 30
C=C[C@H]1C[C@@]1(NC(=O)C1C[C@@H](OC(=O)N2Cc3ccc4c(c3C2)OCO4)CN1C(=O)[C@@H](NC(=O)[C@@H](NC(=O)c1cnccn1)C1CCCCC1)C(C)(C)C)C(=O)NS(=O)(=O)C1CC1 (some centres unmarked) [Compound 30e],–,< 30
CC[C@H]1C[C@@]1(NC(=O)C1C[C@@H](OC(=O)N2Cc3cc4c(cc3C2)OCO4)CN1C(=O)[C@@H](NC(=O)[C@@H](NC(=O)OC1CCCC1)C1CCCCC1)C(C)(C)C)C(=O)NS(=O)(=O)C1CC1 (some centres unmarked) [Compound 30t],–,< 30
COc1ccc(S(=O)(=O)N[C@H]2CCCCC/C=C\[C@@H]3C[C@@]3(C(=O)NS(=O)(=O)C3CC3)NC(=O)[C@@H]3C[C@@H](OC(=O)N4Cc5cc6c(cc5C4)OCO6)CN3C2=O)cc1 [Compound 16c],< 30,–

# — US8815796B2, “Polyheterocyclic compounds highly potent as HCV inhibitors” (AB Pharma Ltd., priority 2010, dated 2014)
